Experimental data reported in ChEMBL document CHEMBL1201862, “PubChem BioAssay data set” (2004).
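Each compound was tested at five concentrations against cells in 96-well plates for 48 hours. GI50 marks 50% less growth.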 The source made the active and inactive calls. No stated cut-off is given here; in the data, active = GI50 up to about 1.1 µM and inactive = higher.

What was measured:
Test in all cases: DTP human tumour cell line panel, 48 h
A549 = system: A549
HCC 2998 = system: HCC 2998
HCT-116 = system: HCT-116
HOP-62 = system: HOP-62
KM12 = system: KM12
LOX IMVI = system: LOX IMVI
NCI-H23 = system: NCI-H23
NCI-H460 = system: NCI-H460
NCI-H522 = system: NCI-H522
OVCAR-3 = system: OVCAR-3
OVCAR-4 = system: OVCAR-4
RPMI-8226 = system: RPMI-8226
SF-295 = system: SF-295
SF-539 = system: SF-539
SK-OV-3 = system: SK-OV-3
SNB-19 = system: SNB-19
SR = system: SR
SK-MEL-2 = system: SK-MEL-2

Measured: GI50

N#Cc1c(-c2ccco2)cc(-c2ccc(N)cc2)[nH]c1=O
inactive: A549 > 100 µM | HCC 2998 > 100 µM | HCT-116 > 100 µM | HOP-62 > 100 µM | KM12 > 100 µM | LOX IMVI > 100 µM | NCI-H23 > 100 µM | NCI-H460 > 100 µM | NCI-H522 > 100 µM | OVCAR-3 > 100 µM | OVCAR-4 > 100 µM | RPMI-8226 > 100 µM | SF-295 > 100 µM | SF-539 > 100 µM | SK-OV-3 > 100 µM | SNB-19 > 100 µM | SR > 100 µM

CC12N=NN(c3ccc([N+](=O)[O-])cc3)C1(O)c1ccccc1C2=O (centres undefined)
inactive: A549 > 100 µM | HCC 2998 > 100 µM | HCT-116 > 100 µM | HOP-62 > 100 µM | KM12 > 100 µM | LOX IMVI > 100 µM | NCI-H23 > 100 µM | NCI-H460 > 100 µM | NCI-H522 > 100 µM | OVCAR-3 > 100 µM | RPMI-8226 > 100 µM | SF-295 > 100 µM | SF-539 70.1 µM | SK-OV-3 > 100 µM | SNB-19 > 100 µM | SR > 100 µM

Cc1cc(NS(=O)(=O)c2ccc(Nc3c4ccccc4nc4c(C(=O)Nc5ccc(S(=O)(=O)N=C(N)N)cc5)ccc(Cl)c34)cc2)no1
inactive: A549 > 100 µM | HCC 2998 38.5 µM | HCT-116 53.8 µM | HOP-62 22.1 µM | KM12 87.9 µM | LOX IMVI 19.6 µM | NCI-H23 29.9 µM | NCI-H460 98.9 µM | NCI-H522 16 µM | OVCAR-3 21.5 µM | OVCAR-4 28.5 µM | RPMI-8226 29.8 µM | SF-295 73.3 µM | SF-539 18.5 µM | SK-OV-3 31.7 µM | SNB-19 31.7 µM | SR 25.2 µM

COc1ccc(O)c(C(=O)CCC(=O)O)c1
inactive: A549 > 100 µM | HCC 2998 > 100 µM | HOP-62 > 10 µM | KM12 > 100 µM | LOX IMVI > 100 µM | NCI-H23 > 100 µM | NCI-H460 > 100 µM | NCI-H522 > 100 µM | OVCAR-3 > 10 µM | OVCAR-4 > 100 µM | RPMI-8226 > 100 µM | SF-295 > 100 µM | SF-539 > 100 µM | SK-MEL-2 > 100 µM | SK-OV-3 > 100 µM | SNB-19 > 100 µM | SR > 100 µM

CC1(Cl)CC2OC3(Br)C=CC(C)(O)C2(CC1Br)C3(C)C (centres undefined)
inactive: A549 > 100 µM | HCC 2998 > 100 µM | HCT-116 > 100 µM | HOP-62 > 100 µM | KM12 > 100 µM | LOX IMVI > 100 µM | NCI-H23 > 100 µM | NCI-H460 > 100 µM | OVCAR-3 > 100 µM | OVCAR-4 > 100 µM | RPMI-8226 > 100 µM | SF-295 > 100 µM | SF-539 > 100 µM | SK-MEL-2 > 100 µM | SK-OV-3 > 100 µM | SNB-19 > 100 µM | SR 23.6 µM

CC1CC(C)C(=O)C(C(=O)CC2CC(=O)NC2=O)C1 (centres undefined)
inactive: A549 > 100 µM | HCC 2998 > 100 µM | HCT-116 > 100 µM | HOP-62 > 100 µM | KM12 > 100 µM | LOX IMVI > 100 µM | NCI-H23 > 100 µM | NCI-H460 > 100 µM | NCI-H522 > 100 µM | OVCAR-3 > 100 µM | OVCAR-4 > 100 µM | RPMI-8226 > 100 µM | SF-295 > 100 µM | SF-539 > 100 µM | SK-OV-3 > 100 µM | SNB-19 > 100 µM | SR > 100 µM

O=C(Nc1ccc(Br)cc1)C(=O)C(C(=O)c1ccccc1F)C1OC(=O)c2ccccc21 (centres undefined)
inactive: A549 39.7 µM | HCC 2998 16.9 µM | HCT-116 17.7 µM | HOP-62 22.8 µM | KM12 31.8 µM | LOX IMVI 18.4 µM | NCI-H23 17.9 µM | NCI-H460 31.8 µM | NCI-H522 20.7 µM | OVCAR-3 39.8 µM | OVCAR-4 24.7 µM | RPMI-8226 17.8 µM | SF-539 20.1 µM | SK-MEL-2 21.8 µM | SK-OV-3 27.5 µM | SNB-19 20.3 µM

O=C(O)CSc1nnc(-c2ccco2)[nH]1
inactive: A549 > 100 µM | HCC 2998 > 100 µM | HCT-116 > 100 µM | HOP-62 > 100 µM | KM12 > 100 µM | LOX IMVI > 100 µM | NCI-H23 > 100 µM | NCI-H460 > 100 µM | NCI-H522 > 100 µM | OVCAR-3 > 100 µM | OVCAR-4 > 100 µM | RPMI-8226 > 100 µM | SF-295 > 100 µM | SF-539 > 100 µM | SK-MEL-2 > 100 µM | SK-OV-3 > 100 µM | SNB-19 > 100 µM
